# Data reported in US12083089B2, “Compositions and methods for stimulating ventilatory and/or respiratory drive” (CASE WESTERN RESERVE UNIVERSITY, priority 2015, dated 2024).
# Assays:
# [1] = system: freely moving rats; assay: Arterial blood-gas chemistry and A-a gradient in morphine-treated rats; assay type: in vivo, rat; settings: freely moving rats, morphine 10 mg/kg IV, then drug 500 μmol/kg IV 15 min later
# [2] = system: freely moving rats; assay: Hot-plate (hind-paw withdrawal) latency (HPL), Hargreaves's test, morphine 10 mg/kg; assay type: in vivo, rat; settings: morphine 10 mg/kg IV in vehicle-treated rats
# [3] = system: rats; assay: Sedation observation in morphine-treated rats; settings: morphine 10 mg/kg IV plus vehicle
# [4] = system: freely moving rats; assay: Tail-flick latency (TFL) test; assay type: in vivo, rat; settings: for Tail-Flick latency: vehicle-pretreated rats, morphine 10 mg/kg IV
# [5] = system: adult male rats; assay: Hargreaves Hind-paw Latency Test, morphine 1 mg/kg; assay type: in vivo, rat; settings: given alone, morphine sulfate 1 mg/kg IV
structure (smiles),measurement,setting,value
"CN1CC[C@]23c4c5ccc(O)c4O[C@H]2[C@@H](O)C=C[C@H]3[C@H]1C5 [Morphine, morphine]","changes in ABG chemistry (pH, pCO2, pO2 and sO2)",[1]; FIG. 18,"substantial falls in pH, pO2 and sO2 accompanied by substantial increases in pCO2"
same,changes in A-a gradient,[1]; FIG. 19,substantial and equivalent increases
same,duration of the increase in HPL,[2],at least 4 h
same,time for which full mobility was not evident,[3],at least 2 h
same,duration of the increase in TFL,[4]; morphine 10 mg/kg IV in vehicle-treated rats,at least 4 h
same,Tail-Flick latency,[4]; post-morphine - 30 min,12 ± 0.0 s
same,Tail-Flick latency,[4]; post-morphine - 60 min,12 ± 0.0 s
same,Tail-Flick latency,[4]; post-morphine - 90 min,11.7 ± 0.2 s
same,Tail-Flick latency,[4]; post-morphine - 120 min,11.1 ± 0.2 s
same,Tail-Flick latency,[4]; post-morphine - 180 min,8.3 ± 0.3 s
same,Tail-Flick latency,[4]; post-morphine - 210 min,5.6 ± 0.3 s
same,Tail-Flick latency,[4]; post-morphine - 240 min,4.3 ± 0.3 s
same,Tail-Flick latency,[4]; post-morphine - 360 min,3.3 ± 0.3 s
same,Hargreaves hind-paw withdrawal latency,"[5]; D-cystine diME 500 μmol/kg IV, FIG. 26 study",16.3 ± 1.8 s
same,Hargreaves hind-paw withdrawal latency,"[5]; L-cystine diME 500 μmol/kg IV, FIG. 24 study",19.5 ± 0.4 s
